# Measurements from patent US7597899B2, “Compositions comprising a combination of a free sphingoid base and ceramide and uses thereof” (Cosmoferm B.V., priority 1997, dated 2009).
# Tested on: IL-1α
# Assay: IL-1α secretion by UV-B irradiated excised human skin explants (ELISA), marker for antiinflammatory activity
# Format: cell-based
# Conditions: applied before and after UV-B irradiation, * significant p < 0.05
# Procedure: The effect of phytosphingosine was assessed ex vivo on excised human skin explants.
# The explant was exposed to UV-B rays as a physical, proinflammatory stress.
# The antiinflammatory effect of phytosphingosine was evaluated by measurement of the amount of the cytokine IL-1α secreted in the incubation medium of the skin explants.
# • Preparation of the human skin explants obtained after plastic surgery using standard techniques. • Application of the test product: • resp. 0% (Placebo), 0.2 and 0.5% phytosphingosine (PS) in Propylene glycol:Ethanol (60:40). • Dexamethasone (1 μM) was used as the reference product. • The products were applied before and after irradiation (˜2 mg/cm^2) • IL-1α secretion was measured in the incubation medium of the skin explants, using a standard ELISA technique. • Each experimental condition was performed in triplicate.
smiles,measurement,setting,value
"C[C@@H]1C[C@H]2[C@@H]3CCC4=CC(=O)C=C[C@]4(C)[C@@]3(F)[C@@H](O)C[C@]2(C)[C@@]1(O)C(=O)CO [Dexamethasone, reference compound]",IL-1α secreted in the incubation medium,"Dexamethasone 1 μM, before UV-B 48, after UV-B 205, placebo 165",116* pg per ml
"CCCCCCCCCCCCCCC(O)C(O)C(N)CO (stereo not drawn) [PS, 2-amino-octadecane-1,3,4-triol]",IL-1α secreted in the incubation medium,"0.2% PS in Propylene glycol:Ethanol (60:40), ~2 mg/cm^2, placebo 165",82* pg per ml
same,IL-1α secreted in the incubation medium,"0.5% PS in Propylene glycol:Ethanol (60:40), ~2 mg/cm^2, placebo 165",92* pg per ml
